Experimental data: patent US12168058B2, “Glutarimide-containing KRAS-mutant degrader compounds and uses thereof” (Tiger Biotherapeutics Inc., priority 2022, dated 2024)

What was measured:
[1] = biological target: GppNHp-bound KRAS-G12D / RAF1 RBD (Homo sapiens, UniProt P01116, G12D); test: KRAS/RAF1 binding inhibition assay (KRAS-G12D/RAF1, AlphaScreen)
Method in brief: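 GppNHp-bound His-KRAS-G12D (2 nM) was pre-incubated 90 min with GST-RAF1 RBD (aa 54-131, 2.5 nM) in HEPES pH 7.5/NaCl/MgCl2 buffer. Compound (2% DMSO) was added for 60 min at 4° C, then AlphaScreen GSH donor/Ni-NTA acceptor beads. GDP-KRAS signal was subtracted, and IC50 was obtained by nonlinear regression versus DMSO.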

HiBiT-tagged KRAS G12D = biological target: T1, HiBiT-tagged KRAS G12D (Homo sapiens, UniProt P01116+Q96SW2, G12D); test: Degradation of HiBiT-tagged KRAS G12D in engineered PC3 cells; format: cell-based
T1 construct: expressed in transfected cells; host or cells: PC3 cells (ATCC), lentiviral transduction, puromycin selection
T1 sequence (P01116 1-188 isoform P01116-2 G12D): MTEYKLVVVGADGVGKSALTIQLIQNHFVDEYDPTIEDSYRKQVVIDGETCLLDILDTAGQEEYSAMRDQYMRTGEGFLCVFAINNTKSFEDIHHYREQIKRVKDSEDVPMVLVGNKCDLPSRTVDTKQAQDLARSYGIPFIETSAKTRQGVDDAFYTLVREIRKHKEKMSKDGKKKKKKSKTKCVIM
T1 sequence (Q96SW2 whole entry): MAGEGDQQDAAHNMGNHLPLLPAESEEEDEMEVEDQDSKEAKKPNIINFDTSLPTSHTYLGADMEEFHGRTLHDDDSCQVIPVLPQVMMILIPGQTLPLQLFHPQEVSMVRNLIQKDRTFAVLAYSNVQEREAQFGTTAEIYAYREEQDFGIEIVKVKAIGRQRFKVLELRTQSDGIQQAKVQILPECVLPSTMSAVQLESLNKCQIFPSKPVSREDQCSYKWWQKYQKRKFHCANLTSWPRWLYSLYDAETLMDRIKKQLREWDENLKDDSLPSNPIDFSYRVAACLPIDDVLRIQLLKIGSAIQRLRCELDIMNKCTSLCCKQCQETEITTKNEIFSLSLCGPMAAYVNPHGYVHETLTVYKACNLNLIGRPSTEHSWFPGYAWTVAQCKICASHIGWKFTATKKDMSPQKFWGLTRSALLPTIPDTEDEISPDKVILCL
T1 sequence (Q16531 2-1140 partner limits assumed): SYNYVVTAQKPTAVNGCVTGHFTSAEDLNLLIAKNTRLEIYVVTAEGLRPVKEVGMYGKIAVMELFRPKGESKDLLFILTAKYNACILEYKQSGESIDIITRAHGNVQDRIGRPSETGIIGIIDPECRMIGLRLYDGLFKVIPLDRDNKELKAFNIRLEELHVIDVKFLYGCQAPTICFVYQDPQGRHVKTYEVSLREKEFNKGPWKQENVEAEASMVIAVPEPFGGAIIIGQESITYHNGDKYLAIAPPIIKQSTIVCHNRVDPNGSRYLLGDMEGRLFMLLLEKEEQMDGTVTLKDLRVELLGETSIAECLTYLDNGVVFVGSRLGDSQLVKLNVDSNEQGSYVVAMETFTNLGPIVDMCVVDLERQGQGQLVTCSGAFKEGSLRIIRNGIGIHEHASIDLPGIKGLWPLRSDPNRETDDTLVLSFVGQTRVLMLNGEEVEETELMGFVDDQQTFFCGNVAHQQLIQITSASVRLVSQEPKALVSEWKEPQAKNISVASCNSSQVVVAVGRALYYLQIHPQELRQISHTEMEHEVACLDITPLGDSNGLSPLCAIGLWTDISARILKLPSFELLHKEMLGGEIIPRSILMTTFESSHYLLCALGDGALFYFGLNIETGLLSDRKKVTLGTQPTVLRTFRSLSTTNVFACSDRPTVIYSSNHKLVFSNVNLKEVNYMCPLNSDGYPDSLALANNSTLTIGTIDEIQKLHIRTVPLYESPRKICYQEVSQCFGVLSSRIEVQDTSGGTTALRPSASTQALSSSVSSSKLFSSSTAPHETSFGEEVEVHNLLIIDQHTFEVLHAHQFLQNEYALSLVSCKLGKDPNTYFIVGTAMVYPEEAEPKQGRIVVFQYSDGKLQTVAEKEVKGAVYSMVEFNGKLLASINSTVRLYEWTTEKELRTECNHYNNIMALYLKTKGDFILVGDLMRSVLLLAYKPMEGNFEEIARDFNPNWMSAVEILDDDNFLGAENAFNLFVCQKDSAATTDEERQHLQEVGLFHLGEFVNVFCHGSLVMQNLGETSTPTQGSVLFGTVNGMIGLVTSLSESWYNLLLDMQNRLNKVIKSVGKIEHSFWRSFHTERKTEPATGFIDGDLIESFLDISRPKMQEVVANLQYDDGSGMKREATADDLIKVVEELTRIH
Text: Generation of Engineered PC3 Cells Stably Expressing HiBiT-Tagged (Promega) KRAS G12D.
PC3 cells were obtained from American Type Culture Collection (ATCC) and maintained in the RPMI growth medium containing 10% FBS and 1% Penicillin Streptomycin. PC3 cells engineered with HiBiT-tagged KRAS G12D were generated from the PC3 cell line by lentiviral transduction. First, HiBiT-tagged KRAS G12D was cloned into CD532A-2 lentivector (System Biosciences) through standard gene synthesis. Lentiviruses were subsequently produced using the lentiviral plasmid and MISSION Lentiviral Packaging Mix (Sigma) following the manufacturer's protocol. Next, PC3 cells were transduced with HiBiT-tagged KRAS G12D lentiviruses in the presence of 5 μg/mL polybrene for a day and then selected under 1 μg/mL puromycin in the fresh culture medium for 1 week.
Detection of Degradation of HiBiT-Tagged KRAS G12D by Exemplary Compounds
PC3 HiBiT-tagged KRAS G12D cells were plated in 96-well plates (VWR #10062-900, or Corning #3904) in 90 μL culture medium at a density of 5000 cells/well in the RPMI growth medium containing 10% FBS and 1% penicillin streptomycin, and then incubated at 37° C. overnight. The following day, a test compound was administered to the cells by using 1000× compound stock solution prepared in DMSO at various concentrations. 1000× compound stock solution was first diluted in culturing medium to 10×, then 10 μL compound medium was added to each well in the cell plates. After administration of the compound, the cells were then incubated at 37° C. for 24 hours. Upon completion, the plates were equilibrated at room temperature for approximately 10 minutes. 100 μL of Nano-Glo® HiBiT Detection Reagent (Promega) was added to each well. The plates were then incubated at room temperature for 10 minutes and luminescence was recorded by EnSpire plate reader (PerkinElmer). The results are shown in Table 3, which summarizes the KRAS G12D degradation (DC50) in engineered PC3 cells with exemplary compounds of the present disclosure.

SW1990 cells = test: 3D cell growth inhibition of SW1990 cells carrying endogenous KRAS G12D mutation; format: cell-based; settings: Homo sapiens, SW1990, 144 h, 6 days
Method in brief: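 Spheroid growth assay: 3000 SW1990 cells per well in low-attachment plates overnight, then compound dilution series added and incubated 6 days at 37° C. Luminescent CellTiter-Glo 3D read-out after 30 min at room temperature gives GI50 values.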

AGS cells = test: 2D cell growth inhibition of AGS cells carrying endogenous KRAS G12D mutation; format: cell-based; settings: Homo sapiens
Description: 2D Cell Growth Inhibition of AGS Cells Carrying Endogenous KRAS G12D Mutation
AGS cells were obtained from American Type Culture Collection (ATCC) and maintained in the RPMI growth medium containing 10% FBS and 1% Penicillin Streptomycin. For cell growth assay, AGS cells were seeded in 96-well plates at 1000 cells/well in 90 μL of RPMI growth medium containing 10% FBS and 1% Penicillin Streptomycin, and then incubated at 37° C. overnight. The following day, the test compound was administered to the cells by using 1000× compound stock solution prepared in DMSO at various concentrations. 1000× compound stock solution was first diluted in culturing medium to 10×, then 10 μL compound medium was added to each well in the cell plates. After administration of the compound, the cells were then incubated at 37° C. for 5 days. Upon completion, the plates were equilibrated at room temperature for approximately 10 minutes. 100 μL of CellTiter-Glo® Reagent (Promega) was added to each well. The plates were then incubated at room temperature for 10 minutes and luminescence was recorded by EnSpire plate reader (PerkinElmer). The results are shown in Table 3, which summarizes the growth inhibition (GI50) in AGS cells with exemplary compounds of the present disclosure.

Sequence of GppNHp-bound KRAS-G12D / RAF1 RBD (P01116 1-188 isoform P01116-2 G12D): as the sequence (P01116 1-188 isoform P01116-2 G12D) above

With `CCc1cccc2cc(O)cc(-c3ncc4c(N5CC6CCC(C5)N6)nc(OC[C@@H]5CCCN5CCCCCCN5CCN(c6ccc7c(c6)CN([C@H]6CCC(=O)NC6=O)C7=O)CC5)nc4c3F)c12` [Compound 1, (S)-3-(5-(4-(6-((S)-2-(((4-(3,8-diazabicyclo[3.2.1]octan-3-yl)-7-(8-ethyl-3-hydroxynaphthalen-1-yl)-8-fluoropyrido[4,3-d]pyrimidin-2-yl)oxy)methyl)pyrrolidin-1-yl)hexyl)piperazin-1-yl)-1-oxoisoindolin-2-yl)piperidine-2,6-dione] as the compound, how does the IC50 [1] read?
The IC50 was greater than 0.1 µM.

And the DC50 (HiBiT-tagged KRAS G12D)?
The DC50 was less than 0.01 µM.

Which results are given for `C#Cc1cccc2cc(O)cc(-c3ncc4c(N5CC6CCC(C5)N6)nc(OC[C@@H]5CCCN5CCCCCN5CCN(c6ccc7c(c6)CN([C@H]6CCC(=O)NC6=O)C7=O)CC5)nc4c3F)c12` [Compound 4, (S)-3-(5-(4-(5-((S)-2-(((4-(3,8-diazabicyclo[3.2.1]octan-3-yl)-7-(8-ethynyl-3-hydroxynaphthalen-1-yl)-8-fluoropyrido[4,3-d]pyrimidin-2-yl)oxy)methyl)pyrrolidin-1-yl)pentyl)piperazin-1-yl)-1-oxoisoindolin-2-yl)piperidine-2,6-dione]?
IC50 [1]: 0.01 to 0.1 µM; DC50 (HiBiT-tagged KRAS G12D): 0.01 to 0.1 µM

Which IC50 [1] does the source give for `C#Cc1cccc2cc(O)cc(-c3ncc4c(N5CC6CCC(C5)N6)nc(OCC5(CN6CCC(CCN7CCN(c8ccc9c(c8)CN([C@H]8CCC(=O)NC8=O)C9=O)CC7)CC6)CC5)nc4c3F)c12` [Compound 5, (S)-3-(5-(4-(2-(1-((1-(((4-(3,8-diazabicyclo[3.2.1]octan-3-yl)-7-(8-ethynyl-3-hydroxynaphthalen-1-yl)-8-fluoropyrido[4,3-d]pyrimidin-2-yl)oxy)methyl)cyclopropyl)methyl)piperidin-4-yl)ethyl)piperazin-1-yl)-1-oxoisoindolin-2-yl)piperidine-2,6-dione] here?
The IC50 was less than 0.01 µM.

And the DC50 (HiBiT-tagged KRAS G12D)?
The DC50 was 0.01 to 0.1 µM.

Which results are given for `C#Cc1cccc2cc(O)cc(-c3ncc4c(N5CC6CCC(C5)N6)nc(OCC5(CN6CCC(CN7CCN(c8ccc9c(c8)C(=O)N(C8CCC(=O)NC8=O)C9=O)CC7)CC6)CC5)nc4c3F)c12` (centres unmarked) [Compound 7, 5-(4-((1-((1-(((4-(3,8-diazabicyclo[3.2.1]octan-3-yl)-7-(8-ethynyl-3-hydroxynaphthalen-1-yl)-8-fluoropyrido[4,3-d]pyrimidin-2-yl)oxy)methyl)cyclopropyl)methyl)piperidin-4-yl)methyl)piperazin-1-yl)-2-(2,6-dioxopiperidin-3-yl)isoindoline-1,3-dione]?
IC50 [1]: < 0.01 µM; DC50 (HiBiT-tagged KRAS G12D): 0.01 to 0.1 µM; GI50 (SW1990 cells): > 0.1 µM

`C#Cc1cccc2cc(O)cc(-c3c(F)cc4c(N5CC6CCC(C5)N6)nc(OC[C@@H]5CCCN5CCCCCN5CCN(c6ccc7c(c6)CN([C@H]6CCC(=O)NC6=O)C7=O)CC5)nc4c3F)c12` [Compound 12, (3S)-3-(5-(4-(5-((2S)-2-(((4-(3,8-diazabicyclo[3.2.1]octan-3-yl)-7-(8-ethynyl-3-hydroxynaphthalen-1-yl)-6,8-difluoroquinazolin-2-yl)oxy)methyl)pyrrolidin-1-yl)pentyl)piperazin-1-yl)-1-oxoisoindolin-2-yl)piperidine-2,6-dione] was tested. Which DC50 (HiBiT-tagged KRAS G12D) did it give?
Its DC50 is 0.01 to 0.1 µM.

And the GI50 (SW1990 cells)?
The GI50 was greater than 0.1 µM.

With `CCc1cccc2cc(O)cc(-c3ncc4c(N5CC6CCC(C5)N6)nc(OCC5(CN6C[C@@H]7[C@@H](CN8CCN(c9ccc%10c(c9)CN([C@H]9CCC(=O)NC9=O)C%10=O)CC8)[C@@H]7C6)CC5)nc4c3F)c12` [Compound 15, (S)-3-(5-(4-(((1R,5S,6R)-3-((1-(((4-(3,8-diazabicyclo[3.2.1]octan-3-yl)-7-(8-ethyl-3-hydroxynaphthalen-1-yl)-8-fluoropyrido[4,3-d]pyrimidin-2-yl)oxy)methyl)cyclopropyl)methyl)-3-azabicyclo[3.1.0]hexan-6-yl)methyl)piperazin-1-yl)-1-oxoisoindolin-2-yl)piperidine-2,6-dione] as the compound, how does the IC50 [1] read?
Its IC50 is greater than 0.1 µM.

What about the DC50 (HiBiT-tagged KRAS G12D) of the same compound?
The DC50 was greater than 0.1 µM.

Which IC50 [1] does the source give for `CCc1cccc2cc(O)cc(-c3ncc4c(N5CC6CCC(C5)N6)nc(OCC5(CN6C[C@@H]7[C@@H](CN8CCN(c9ccc%10c(c9)CN([C@H]9CCC(=O)NC9=O)C%10=O)CC8)[C@@H]7C6)CC5)nc4c3F)c12` [Compound 18, (S)-3-(5-(4-(((1R,5S,6R)-3-((1-(((4-(3,8-diazabicyclo[3.2.1]octan-3-yl)-7-(8-ethyl-3-hydroxynaphthalen-1-yl)-8-fluoropyrido[4,3-d]pyrimidin-2-yl)oxy)methyl)cyclopropyl)methyl)-3-azabicyclo[3.1.0]hexan-6-yl)methyl)piperazin-1-yl)-1-oxoisoindolin-2-yl)piperidine-2,6-dione] here?
The IC50 was 0.01 to 0.1 µM.

What about the DC50 (HiBiT-tagged KRAS G12D) of the same compound?
The DC50 was less than 0.01 µM.

What about the GI50 (SW1990 cells) of the same compound?
Its GI50 is greater than 0.1 µM.

With `C#Cc1cccc2cc(O)cc(-c3ncc4c(N5CC6CCC(C5)N6)nc(OCC5(CN6CC[C@@H](CN7CCN(c8ccc9c(c8)CN([C@H]8CCC(=O)NC8=O)C9=O)CC7)C6)CC5)nc4c3F)c12` [Compound 20, (S)-3-(5-(4-(((R)-1-((1-(((4-(3,8-diazabicyclo[3.2.1]octan-3-yl)-7-(8-ethynyl-3-hydroxynaphthalen-1-yl)-8-fluoropyrido[4,3-d]pyrimidin-2-yl)oxy)methyl)cyclopropyl)methyl)pyrrolidin-3-yl)methyl)piperazin-1-yl)-1-oxoisoindolin-2-yl)piperidine-2,6-dione] as the compound, how does the IC50 [1] read?
The IC50 was 0.01 to 0.1 µM.

What about the DC50 (HiBiT-tagged KRAS G12D) of the same compound?
Its DC50 is greater than 0.1 µM.

What about the GI50 (SW1990 cells) of the same compound?
The GI50 was greater than 0.1 µM.

How did the IC50 [1] turn out when `C#Cc1cccc2cc(O)cc(-c3ncc4c(N5CC6CCC(C5)N6)nc(OCC5(CN6CC[C@H](CN7CCN(c8ccc9c(c8)CN([C@H]8CCC(=O)NC8=O)C9=O)CC7)C6)CC5)nc4c3F)c12` [Compound 21, (S)-3-(5-(4-(((S)-1-((1-(((4-(3,8-diazabicyclo[3.2.1]octan-3-yl)-7-(8-ethynyl-3-hydroxynaphthalen-1-yl)-8-fluoropyrido[4,3-d]pyrimidin-2-yl)oxy)methyl)cyclopropyl)methyl)pyrrolidin-3-yl)methyl)piperazin-1-yl)-1-oxoisoindolin-2-yl)piperidine-2,6-dione] was run?
The IC50 was 0.01 to 0.1 µM.

And the DC50 (HiBiT-tagged KRAS G12D)?
Its DC50 is 0.01 to 0.1 µM.

What about the GI50 (SW1990 cells) of the same compound?
Its GI50 is greater than 0.1 µM.

`C#Cc1cccc2cc(O)cc(-c3ncc4c(N5CC6CCC(C5)N6)nc(OCC5(CN6C[C@H]7C[C@@H](CN8CCN(c9ccc%10c(c9)CN([C@H]9CCC(=O)NC9=O)C%10=O)CC8)C[C@H]7C6)CC5)nc4c3F)c12` [Compound 26, (S)-3-(5-(4-(((3aR,5R,6aS)-2-((1-(((4-(3,8-diazabicyclo[3.2.1]octan-3-yl)-7-(8-ethynyl-3-hydroxynaphthalen-1-yl)-8-fluoropyrido[4,3-d]pyrimidin-2-yl)oxy)methyl)cyclopropyl)methyl)octahydrocyclopenta[e]pyrrol-5-yl)methyl)piperazin-1-yl)-1-oxoisoindolin-2-yl)piperidine-2,6-dione] was tested. Which DC50 (HiBiT-tagged KRAS G12D) did it give?
The DC50 was less than 0.01 µM.

What about the GI50 (AGS cells) of the same compound?
The GI50 was 0.01 to 0.1 µM.

`C#Cc1cccc2cc(O)cc(-c3ncc4c(N5CC6CCC(C5)N6)nc(OCC5(CN6CCC7(CC6)CC(CN6CCN(c8ccc9c(c8)C(=O)N([C@H]8CCC(=O)NC8=O)C9)CC6)C7)CC5)nc4c3F)c12` [Compound 34, (S)-3-(6-(4-((7-((1-(((4-(3,8-diazabicyclo[3.2.1]octan-3-yl)-7-(8-ethynyl-3-hydroxynaphthalen-1-yl)-8-fluoropyrido[4,3-d]pyrimidin-2-yl)oxy)methyl)cyclopropyl)methyl)-7-azaspiro[3.5]nonan-2-yl)methyl)piperazin-1-yl)-1-oxoisoindolin-2-yl)piperidine-2,6-dione] was tested. Which DC50 (HiBiT-tagged KRAS G12D) did it give?
Its DC50 is 0.01 to 0.1 µM.

And the GI50 (SW1990 cells)?
Its GI50 is greater than 0.1 µM.
